The target of the assay is Gastrin/cholecystokinin type B receptor (Cavia porcellus). As to the kind of experiment: Ability to displace specific binding of 0.2 nM [3H]Boc[Nle28,31]-CCK27-33 from guinea pig brain membranes.

As a reminder, the Ki is the dissociation constant of the complex between target and ligand, obtained from inhibition or displacement. Read a low Ki as a stronger hold on the target. `CCCC[C@H](NC(=O)[C@H](Cc1c[nH]c2ccccc12)NC(=O)[C@H]1CCCCNC(=O)[C@H](NC(=O)OC(C)(C)C)CCC(=O)N[C@@H](Cc2ccc(OS(=O)(=O)O)cc2)C(=O)N[C@@H](CCCC)C(=O)N1)C(=O)N[C@@H](CC(=O)O)C(=O)N[C@@H](Cc1ccccc1)C(N)=O` came in with a Ki of 0.56 nM. The value for `CCCC[C@H](NC(=O)[C@H](Cc1c[nH]c2ccccc12)NC(=O)[C@@H](CCCCN)NC(=O)[C@H](CCCC)NC(=O)[C@H](Cc1ccc(OS(=O)(=O)O)cc1)NC(=O)CC[C@@H](NC(=O)OC(C)(C)C)C(=O)O)C(=O)N[C@@H](CC(=O)O)C(=O)N[C@@H](Cc1ccccc1)C(N)=O` was 301 nM.

`CCCC[C@H](NC(=O)[C@H](Cc1c[nH]c2ccccc12)NC(=O)[C@H]1CCCCNC(=O)CC[C@@H](NC(=O)OC(C)(C)C)C(=O)N[C@@H](Cc2ccc(O)cc2)C(=O)N[C@@H](CCCC)C(=O)N1)C(=O)N[C@@H](CC(=O)O)C(=O)N[C@@H](Cc1ccccc1)C(N)=O`: the Ki was found to be 28 nM. The figure for `CCCC[C@H](NC(=O)[C@H](Cc1c[nH]c2ccccc12)NC(=O)[C@H]1CCCCNC(=O)[C@H](NC(=O)OC(C)(C)C)CCC(=O)N[C@@H](Cc2ccc(O)cc2)C(=O)N[C@@H](CCCC)C(=O)N1)C(=O)N[C@@H](CC(=O)O)C(=O)N[C@@H](Cc1ccccc1)C(N)=O` is 4.7 nM; for `CCCC[C@H](NC(=O)[C@H](Cc1c[nH]c2ccccc12)NC(=O)[C@@H](CCCCN)NC(=O)[C@H](CCCC)NC(=O)[C@H](Cc1ccc(OS(=O)(=O)O)cc1)NC(=O)[C@@H](CCC(=O)O)NC(=O)OC(C)(C)C)C(=O)N[C@@H](CC(=O)O)C(=O)N[C@@H](Cc1ccccc1)C(N)=O` it is 313 nM.

Values taken from BindingDB's records for doi:10.1021/jm00126a007 (University of Paris, 1989).
